From the kinase profiling compilation of Christmann-Franck et al. (2016)

Tests used:
Assay in all cases: radiometric filter-binding kinase assay
AURKB (human) = AURKB (human) (UniProt Q96GD4); settings: compound 100.0 µM; ATP 20 µM
CAMKK2 (human) = CAMKK2 (human) (UniProt Q96RR4); settings: compound 100.0 µM; ATP 20 µM
CHEK1 (human) = CHEK1 (human) (UniProt O14757); settings: compound 100.0 µM; ATP 20 µM
CHEK2 (human) = CHEK2 (human) (UniProt O96017); settings: compound 100.0 µM; ATP 20 µM
CLK2 (human) = CLK2 (human) (UniProt P49760); settings: compound 100.0 µM; ATP 5 µM
CSK (human) = CSK (human) (UniProt P41240); settings: compound 100.0 µM; ATP 20 µM
DYRK2 (human) = DYRK2 (human) (UniProt Q92630); settings: compound 100.0 µM; ATP 50 µM
EPHB3 (human) = EPHB3 (human) (UniProt P54753); settings: compound 100.0 µM; ATP 20 µM
GCK (human) = GCK (human) (UniProt Q12851); settings: compound 100.0 µM; ATP 20 µM
GSK3B (human) = GSK3B (human) (UniProt P49841); settings: compound 100.0 µM; ATP 5 µM
HIPK1 (human) = HIPK1 (human) (UniProt Q86Z02); settings: compound 100.0 µM; ATP 20 µM
IGF1R (human) = IGF1R (human) (UniProt P08069); settings: compound 100.0 µM; ATP 5 µM
IKBKB (human) = IKBKB (human) (UniProt O14920); settings: compound 100.0 µM; ATP 5 µM
IRAK4 (human) = IRAK4 (human) (UniProt Q9NWZ3); settings: compound 100.0 µM; ATP 20 µM
JAK2 JH1 JH2 (human) = JAK2 JH1 JH2 (human) (UniProt O60674); settings: compound 100.0 µM; ATP 5 µM
MAP2K1 (human) = MAP2K1 (human) (UniProt Q02750); settings: compound 100.0 µM; ATP 5 µM
MAP2K2 (human) = MAP2K2 (human) (UniProt P36507); settings: compound 100.0 µM; ATP 5 µM
MAP3K7 TAB1 (human) = MAP3K7 TAB1 (human) (UniProt Q15750+O43318); settings: compound 100.0 µM; ATP 5 µM
Chain of MAP3K7 TAB1 (human) (O43318 whole entry, looked up): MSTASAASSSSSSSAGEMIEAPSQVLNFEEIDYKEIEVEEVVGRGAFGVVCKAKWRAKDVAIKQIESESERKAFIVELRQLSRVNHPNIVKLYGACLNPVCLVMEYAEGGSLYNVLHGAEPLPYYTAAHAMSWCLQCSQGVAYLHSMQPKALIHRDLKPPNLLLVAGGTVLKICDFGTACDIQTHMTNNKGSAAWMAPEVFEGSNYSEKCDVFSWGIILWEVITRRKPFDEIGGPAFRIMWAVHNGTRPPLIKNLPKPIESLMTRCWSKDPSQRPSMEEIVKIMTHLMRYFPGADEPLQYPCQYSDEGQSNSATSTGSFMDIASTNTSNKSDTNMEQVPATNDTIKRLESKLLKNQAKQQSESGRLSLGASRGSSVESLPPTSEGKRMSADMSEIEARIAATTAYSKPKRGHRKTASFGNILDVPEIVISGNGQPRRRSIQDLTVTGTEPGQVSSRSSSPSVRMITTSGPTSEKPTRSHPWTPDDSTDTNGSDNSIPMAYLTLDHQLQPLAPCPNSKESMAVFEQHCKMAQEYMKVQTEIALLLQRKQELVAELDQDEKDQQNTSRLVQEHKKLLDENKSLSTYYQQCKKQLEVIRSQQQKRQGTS
Chain of MAP3K7 TAB1 (human) (Q15750 whole entry, looked up): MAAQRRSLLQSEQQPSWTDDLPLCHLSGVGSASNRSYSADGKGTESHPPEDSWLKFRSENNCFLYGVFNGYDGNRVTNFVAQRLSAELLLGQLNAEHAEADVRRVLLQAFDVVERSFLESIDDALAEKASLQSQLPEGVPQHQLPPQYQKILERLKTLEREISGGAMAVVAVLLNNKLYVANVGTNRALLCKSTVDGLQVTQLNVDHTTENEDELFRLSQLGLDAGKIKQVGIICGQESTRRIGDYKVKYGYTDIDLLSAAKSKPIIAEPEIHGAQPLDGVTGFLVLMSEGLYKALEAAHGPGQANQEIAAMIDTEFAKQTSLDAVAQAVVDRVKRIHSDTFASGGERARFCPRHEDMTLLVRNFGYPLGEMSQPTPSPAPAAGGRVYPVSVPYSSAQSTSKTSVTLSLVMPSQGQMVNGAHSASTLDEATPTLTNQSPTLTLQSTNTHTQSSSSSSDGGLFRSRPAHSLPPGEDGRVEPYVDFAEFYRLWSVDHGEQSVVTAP

MAPK11 (human) = MAPK11 (human) (UniProt Q15759); settings: compound 100.0 µM; ATP 20 µM
MAPK12 (human) = MAPK12 (human) (UniProt P53778); settings: compound 100.0 µM; ATP 5 µM
MAPK14 (human) = MAPK14 (human) (UniProt Q16539); settings: compound 100.0 µM; ATP 50 µM
MAPKAPK5 (human) = MAPKAPK5 (human) (UniProt Q8IW41); settings: compound 100.0 µM; ATP 20 µM
MARK4 (human) = MARK4 (human) (UniProt Q96L34); settings: compound 100.0 µM; ATP 50 µM
Chain of MARK4 (human) (Q96L34 whole entry, looked up): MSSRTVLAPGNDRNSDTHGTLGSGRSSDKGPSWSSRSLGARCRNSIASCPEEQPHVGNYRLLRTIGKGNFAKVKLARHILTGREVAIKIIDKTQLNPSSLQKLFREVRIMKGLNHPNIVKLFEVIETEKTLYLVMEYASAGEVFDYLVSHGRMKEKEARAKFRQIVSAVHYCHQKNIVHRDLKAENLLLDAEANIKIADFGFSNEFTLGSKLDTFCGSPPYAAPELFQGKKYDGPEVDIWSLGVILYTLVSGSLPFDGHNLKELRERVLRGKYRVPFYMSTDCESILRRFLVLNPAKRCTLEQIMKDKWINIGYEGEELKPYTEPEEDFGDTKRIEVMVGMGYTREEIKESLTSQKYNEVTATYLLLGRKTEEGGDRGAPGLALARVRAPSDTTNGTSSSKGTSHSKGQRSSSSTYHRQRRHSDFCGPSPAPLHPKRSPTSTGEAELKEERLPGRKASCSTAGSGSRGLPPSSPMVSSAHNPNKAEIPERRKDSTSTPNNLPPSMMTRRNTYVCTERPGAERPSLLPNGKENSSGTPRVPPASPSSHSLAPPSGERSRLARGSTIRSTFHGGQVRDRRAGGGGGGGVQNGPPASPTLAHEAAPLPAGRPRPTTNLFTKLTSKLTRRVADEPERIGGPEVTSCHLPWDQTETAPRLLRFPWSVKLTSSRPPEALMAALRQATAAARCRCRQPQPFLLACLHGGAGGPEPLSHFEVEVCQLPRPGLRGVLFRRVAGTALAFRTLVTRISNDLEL

MKNK1 (human) = MKNK1 (human) (UniProt Q9BUB5); settings: compound 100.0 µM; ATP 50 µM
[1] = system: PAK2 (human), Q13177 [T402E]; settings: compound 100.0 µM; ATP 20 µM
Chain of PAK2 (human), Q13177 [T402E] (Q13177 whole entry T402E, looked up): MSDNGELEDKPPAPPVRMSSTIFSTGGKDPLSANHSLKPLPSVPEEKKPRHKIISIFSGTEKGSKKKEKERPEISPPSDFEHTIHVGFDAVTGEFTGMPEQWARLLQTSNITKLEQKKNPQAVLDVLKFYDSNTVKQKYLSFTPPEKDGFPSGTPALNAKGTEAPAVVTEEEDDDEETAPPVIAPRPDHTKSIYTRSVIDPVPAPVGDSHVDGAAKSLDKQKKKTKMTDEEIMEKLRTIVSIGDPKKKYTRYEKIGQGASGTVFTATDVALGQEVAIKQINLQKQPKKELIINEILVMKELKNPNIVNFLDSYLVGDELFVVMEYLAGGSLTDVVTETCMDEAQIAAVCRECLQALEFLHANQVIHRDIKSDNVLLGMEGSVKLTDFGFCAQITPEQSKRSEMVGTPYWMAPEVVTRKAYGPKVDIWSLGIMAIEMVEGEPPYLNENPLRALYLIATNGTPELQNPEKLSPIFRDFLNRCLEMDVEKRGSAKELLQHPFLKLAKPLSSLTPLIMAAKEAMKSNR

PAK4 (human) = PAK4 (human) (UniProt O96013); settings: compound 100.0 µM; ATP 5 µM
PAK7 (human) = PAK7 (human) (UniProt Q9P286); settings: compound 100.0 µM; ATP 20 µM
Chain of PAK7 (human) (Q9P286 whole entry, looked up): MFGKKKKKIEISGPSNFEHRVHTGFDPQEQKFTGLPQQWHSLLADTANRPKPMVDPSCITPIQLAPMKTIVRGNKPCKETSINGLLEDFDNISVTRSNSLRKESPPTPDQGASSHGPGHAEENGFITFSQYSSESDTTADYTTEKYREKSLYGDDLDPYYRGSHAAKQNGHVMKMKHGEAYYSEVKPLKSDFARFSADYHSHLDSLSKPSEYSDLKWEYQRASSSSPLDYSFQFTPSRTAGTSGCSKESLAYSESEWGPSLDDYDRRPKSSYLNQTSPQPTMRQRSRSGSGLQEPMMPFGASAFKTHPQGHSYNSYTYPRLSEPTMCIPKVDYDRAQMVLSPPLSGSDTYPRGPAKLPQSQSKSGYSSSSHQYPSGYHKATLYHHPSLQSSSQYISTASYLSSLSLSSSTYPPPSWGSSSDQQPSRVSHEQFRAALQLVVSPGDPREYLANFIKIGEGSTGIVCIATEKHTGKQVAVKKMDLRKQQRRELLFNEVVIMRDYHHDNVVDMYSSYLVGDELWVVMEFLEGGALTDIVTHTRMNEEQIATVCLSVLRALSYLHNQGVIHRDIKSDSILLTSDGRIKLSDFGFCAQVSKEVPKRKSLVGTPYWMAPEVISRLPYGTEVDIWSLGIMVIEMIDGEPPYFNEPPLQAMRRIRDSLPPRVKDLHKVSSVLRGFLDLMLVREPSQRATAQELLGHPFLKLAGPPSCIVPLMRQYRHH

PDPK1 (human) = PDPK1 (human) (UniProt O15530); settings: compound 100.0 µM
Chain of PDPK1 (human) (O15530 whole entry, looked up): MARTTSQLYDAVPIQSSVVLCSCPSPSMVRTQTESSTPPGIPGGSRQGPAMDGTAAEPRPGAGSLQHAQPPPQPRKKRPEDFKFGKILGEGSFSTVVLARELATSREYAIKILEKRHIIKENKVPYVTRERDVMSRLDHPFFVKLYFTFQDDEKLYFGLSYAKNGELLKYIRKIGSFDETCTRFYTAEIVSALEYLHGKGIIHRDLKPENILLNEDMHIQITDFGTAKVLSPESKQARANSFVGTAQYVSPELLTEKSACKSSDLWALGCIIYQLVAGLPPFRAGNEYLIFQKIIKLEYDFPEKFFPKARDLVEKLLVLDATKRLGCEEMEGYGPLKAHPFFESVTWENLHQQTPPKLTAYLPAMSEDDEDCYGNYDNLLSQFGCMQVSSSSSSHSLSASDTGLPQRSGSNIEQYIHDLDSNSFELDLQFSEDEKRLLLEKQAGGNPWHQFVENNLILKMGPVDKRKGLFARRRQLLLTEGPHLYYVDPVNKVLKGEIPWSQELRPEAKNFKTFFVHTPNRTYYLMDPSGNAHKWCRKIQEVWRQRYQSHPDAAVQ

PLK1 (human) = PLK1 (human) (UniProt P53350); settings: compound 100.0 µM; ATP 5 µM
[2] = target: PRKAA1 PRKAB2 PRKAG1 (human) (UniProt O43741+Q13131+P54619); settings: compound 100.0 µM; ATP 20 µM
PRKCG (human) = PRKCG (human) (UniProt P05129); settings: compound 100.0 µM; ATP 20 µM
RIPK2 (human) = RIPK2 (human) (UniProt O43353); settings: compound 100.0 µM; ATP 20 µM
[3] = system: SGK1 (human), O00141 [S422D]; settings: compound 100.0 µM; ATP 20 µM
Chain of SGK1 (human), O00141 [S422D] (O00141 whole entry S422D, looked up): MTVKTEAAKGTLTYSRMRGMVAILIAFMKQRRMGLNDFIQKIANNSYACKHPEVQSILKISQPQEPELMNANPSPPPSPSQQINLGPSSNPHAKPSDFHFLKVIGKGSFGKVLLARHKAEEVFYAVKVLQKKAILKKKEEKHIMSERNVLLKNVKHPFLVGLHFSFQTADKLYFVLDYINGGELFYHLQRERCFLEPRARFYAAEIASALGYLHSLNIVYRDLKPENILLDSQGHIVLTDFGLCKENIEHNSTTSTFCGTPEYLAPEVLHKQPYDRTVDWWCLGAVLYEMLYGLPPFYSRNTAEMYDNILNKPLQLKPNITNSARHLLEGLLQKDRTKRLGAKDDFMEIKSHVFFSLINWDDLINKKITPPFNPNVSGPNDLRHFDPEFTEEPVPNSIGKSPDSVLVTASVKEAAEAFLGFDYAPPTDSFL

SRC (human) = SRC (human) (UniProt P12931); settings: compound 100.0 µM; ATP 50 µM
Chain of SRC (human) (P12931 whole entry, looked up): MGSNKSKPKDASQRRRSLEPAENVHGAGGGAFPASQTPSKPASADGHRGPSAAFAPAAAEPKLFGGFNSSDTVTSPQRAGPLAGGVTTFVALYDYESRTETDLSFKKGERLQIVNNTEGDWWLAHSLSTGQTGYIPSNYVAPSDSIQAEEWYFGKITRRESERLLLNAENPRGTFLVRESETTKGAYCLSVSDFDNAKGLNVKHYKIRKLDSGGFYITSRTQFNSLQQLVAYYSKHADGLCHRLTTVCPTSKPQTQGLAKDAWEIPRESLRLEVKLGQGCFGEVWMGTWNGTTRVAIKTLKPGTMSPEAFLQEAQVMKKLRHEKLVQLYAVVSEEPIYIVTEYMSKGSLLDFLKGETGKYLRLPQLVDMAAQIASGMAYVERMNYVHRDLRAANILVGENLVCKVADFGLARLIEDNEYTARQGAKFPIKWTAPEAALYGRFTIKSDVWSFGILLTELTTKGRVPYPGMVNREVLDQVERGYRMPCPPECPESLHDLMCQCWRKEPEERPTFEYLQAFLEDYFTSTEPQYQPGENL

SRPK1 (human) = SRPK1 (human) (UniProt Q96SB4); settings: compound 100.0 µM; ATP 50 µM
[4] = target: STK11 CAB39 STRADA (human) (UniProt Q9Y376+Q7RTN6+Q15831); settings: compound 100.0 µM; ATP 20 µM
STK3 (human) = STK3 (human) (UniProt Q13188); settings: compound 100.0 µM; ATP 20 µM
TTK (human) = TTK (human) (UniProt P33981); settings: compound 100.0 µM; ATP 20 µM
YES1 (human) = YES1 (human) (UniProt P07947); settings: compound 100.0 µM; ATP 20 µM

Chain of AURKB (human) (Q96GD4 whole entry, looked up): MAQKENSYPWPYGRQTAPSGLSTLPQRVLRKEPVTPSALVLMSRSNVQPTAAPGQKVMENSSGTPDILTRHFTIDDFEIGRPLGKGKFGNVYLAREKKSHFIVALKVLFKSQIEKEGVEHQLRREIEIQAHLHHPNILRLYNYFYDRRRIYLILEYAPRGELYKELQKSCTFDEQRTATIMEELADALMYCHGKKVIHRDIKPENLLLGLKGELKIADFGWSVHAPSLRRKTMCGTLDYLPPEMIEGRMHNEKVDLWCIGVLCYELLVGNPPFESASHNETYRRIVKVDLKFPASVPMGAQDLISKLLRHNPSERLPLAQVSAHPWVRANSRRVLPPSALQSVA

SMILES: CC(C)(C)Nc1c(C2CC2)nc2[nH]cnn12
- inhibition (AURKB (human)): 34%
- inhibition (CAMKK2 (human)): 34%
- inhibition (CHEK1 (human)): 0%
- inhibition (CHEK2 (human)): 0%
- inhibition (CLK2 (human)): 34%
- inhibition (CSK (human)): 0%
- inhibition (DYRK2 (human)): 4%
- inhibition (EPHB3 (human)): 68%
- inhibition (GCK (human)): 8%
- inhibition (GSK3B (human)): 24%
- inhibition (HIPK1 (human)): 6%
- inhibition (IGF1R (human)): 0%
- inhibition (IKBKB (human)): 11%
- inhibition (IRAK4 (human)): 0%
- inhibition (JAK2 JH1 JH2 (human)): 3%
- inhibition (MAP2K1 (human)): 0%
- inhibition (MAP2K2 (human)): 0%
- inhibition (MAP3K7 TAB1 (human)): 3%
- inhibition (MAPK11 (human)): 0%
- inhibition (MAPK12 (human)): 0%
- inhibition (MAPK14 (human)): 0%
- inhibition (MAPKAPK5 (human)): 13%
- inhibition (MARK4 (human)): 15%
- inhibition (MKNK1 (human)): 0%
- inhibition [1]: 10%
- inhibition (PAK4 (human)): 0%
- inhibition (PAK7 (human)): 18%
- inhibition (PDPK1 (human); ATP 20 µM): 3%
- inhibition (PDPK1 (human); ATP 50 µM): 11%
- inhibition (PLK1 (human)): 0%
- inhibition [2]: 5%
- inhibition (PRKCG (human)): 9%
- inhibition (RIPK2 (human)): 0%
- inhibition [3]: 0%
- inhibition (SRC (human)): 0%
- inhibition (SRPK1 (human)): 0%
- inhibition [4]: 0%
- inhibition (STK3 (human)): 0%
- inhibition (TTK (human)): 10%
- inhibition (YES1 (human)): 0%
